Experiment [1] has as its system RSRD cells (MCF-10A cyclin E). The experiment can be described thus: Senescence assay (senescence-associated β galactosidase staining). It counts as cell-based, human. Conditions: 0.5 μM AZD6244 (MEKi) or 0.1 μM ERKi (SCH772984) for 48 hours. The procedure: Senescence assay. shCTRL, shCTRL_cycE, and RSRD cells (5×10^4) were seeded in 6 wells for 48 h prior to treatment with MEK or ERK inhibitors in presence or absence of 2 μg/mL doxycycline to induce cyclin E expression. After the addition of these inhibitors, cells were cultured for another 48 h. Next, a senescence assay was performed using the senescence β-galactosidase staining kit according to the manufacturer's protocol. The percentage of senescent cells was calculated using the ratio of SA-βgal-positive cells to total cells. Mammosphere Formation Assay RSR defect model cells (5000) were seeded in an ultra-low-attachment surface 6-well plate (Corning) in mammosphere medium (50% DMEM, 50% DMEM/F12, […] hydrocortisone, 10 μg/mL insulin, 20 ng/mL recombinant EGF, 100 ng/mL cholera toxin) for 7 days in presence or absence of 2 μg/mL doxycycline to induce cyclin E expression. Spheres with diameters larger than 50 μm were scored as mammospheres.

The test system of experiment [2] is MCF10A shATR cells. The experiment can be described thus: Stem cell score from gene expression. The class given is cell-based, human. To be noted: 48 hours, 0.5 μM AZD6244, MCF10A shATR cells. The procedure: Microarrays. Microarray analysis was conducted as described previously (Peng et al., 2014). Specifically, total RNA was extracted from the cells 48 hours after plating in presence or absence of doxycycline using a QIAGEN RNeasy RNA isolation kit. Complementary RNA was generated using a TotalPrep RNA amplification kit and loaded onto a HumanHT-12 v4 Expression BeadChip for analysis using the manufacturer's procedure.
Expression signature score. Expression signature scores were computed based on correlation coefficient between the coefficients in the gene signature and corresponding expression level in a given sample (McGrail et al., 2017; van de Vijver et al., 2002), with higher values representing a stronger correlation.

Experiment [3] has as its system breast cancer cell lines / MCF10A shATR over-expressing cyclin E. Put plainly: Aldehyde dehydrogenase assay (Aldefluor, flow cytometry), CSC depletion. The class given is cell-based, human. To be noted: 48 hours, AZD6244 0.5 or 1.0 μM, SCH772984 0.1 or 1.0 μM, MDA-MB-231, MDA-MB-436, MCF7-stem, M158, 4T1. The procedure: Aldehyde dehydrogenase assay. Aldehyde dehydrogenase was detected using the Aldefluor kit ([…] Technologies) per the manufacturer's instructions. In brief, 1×10^6 cells/mL were incubated with Aldefluor reagent in presence or absence of ALDH inhibitor DEAB for 45 minutes at 37° C. Cells were washed, re-suspended in ALDH buffer, and analyzed by flow cytometry. Positive cells were gated relative to the DEAB-treated negative control. In some instances, cells were treated with AZD6244, SCH772984, or 2 μg/mL doxycycline 48 hours prior to analysis.
For orientation: Flow cytometry measures light scatter and fluorescence of single cells or particles in a stream.

For experiment [4], the system named is p21. The experiment can be described thus: Western blot of p21 protein. The class given is cell-based, human. Conditions: 0.5 μM AZD6244 or 0.1 μM SCH772984 for 48 hours, doxycycline 2 μg/mL.
Experiment [5] concerns 4T1 murine mammary carcinoma. Put plainly: 4T1 murine mammary carcinoma in syngeneic mice, combination with anti-PD1. It counts as in vivo. To be noted: 25 mg/kg AZD7762 plus 10 mg/kg anti-PD1 (clone RMP1-14), Balb\C mice. From the text:
FIG. 18. […] The 4T1 murine mammary carcinoma was implanted into syngeneic (Balb\C) mice and allowed to grow to ˜[…] before randomization.

The subject of experiment [6] is MDM2 phosphorylation. The experiment can be described thus: Western blot of MDM2 phosphorylation. To be noted: 0.1 μM SCH772984 for 48 hours vs DMSO. It counts as cell-based, human. (A western blot detects proteins with antibodies after separation by electrophoresis.)
In experiment [7] the test system is p53. Put plainly: Western blot of p53 levels. The class given is cell-based, human. To be noted: 0.1 μM SCH772984 for 48 hours vs DMSO.
The target of experiment [8] is ATR (Homo sapiens, UniProt Q13535). To be noted: read-out: kinase inhibition IC50; cited from earlier work.
For experiment [9], the system named is GBM patients. To be noted: neoadjuvant treatment, Cloughesy et al. (2019); cited from earlier work.

Chain of ATR (Q13535 whole entry): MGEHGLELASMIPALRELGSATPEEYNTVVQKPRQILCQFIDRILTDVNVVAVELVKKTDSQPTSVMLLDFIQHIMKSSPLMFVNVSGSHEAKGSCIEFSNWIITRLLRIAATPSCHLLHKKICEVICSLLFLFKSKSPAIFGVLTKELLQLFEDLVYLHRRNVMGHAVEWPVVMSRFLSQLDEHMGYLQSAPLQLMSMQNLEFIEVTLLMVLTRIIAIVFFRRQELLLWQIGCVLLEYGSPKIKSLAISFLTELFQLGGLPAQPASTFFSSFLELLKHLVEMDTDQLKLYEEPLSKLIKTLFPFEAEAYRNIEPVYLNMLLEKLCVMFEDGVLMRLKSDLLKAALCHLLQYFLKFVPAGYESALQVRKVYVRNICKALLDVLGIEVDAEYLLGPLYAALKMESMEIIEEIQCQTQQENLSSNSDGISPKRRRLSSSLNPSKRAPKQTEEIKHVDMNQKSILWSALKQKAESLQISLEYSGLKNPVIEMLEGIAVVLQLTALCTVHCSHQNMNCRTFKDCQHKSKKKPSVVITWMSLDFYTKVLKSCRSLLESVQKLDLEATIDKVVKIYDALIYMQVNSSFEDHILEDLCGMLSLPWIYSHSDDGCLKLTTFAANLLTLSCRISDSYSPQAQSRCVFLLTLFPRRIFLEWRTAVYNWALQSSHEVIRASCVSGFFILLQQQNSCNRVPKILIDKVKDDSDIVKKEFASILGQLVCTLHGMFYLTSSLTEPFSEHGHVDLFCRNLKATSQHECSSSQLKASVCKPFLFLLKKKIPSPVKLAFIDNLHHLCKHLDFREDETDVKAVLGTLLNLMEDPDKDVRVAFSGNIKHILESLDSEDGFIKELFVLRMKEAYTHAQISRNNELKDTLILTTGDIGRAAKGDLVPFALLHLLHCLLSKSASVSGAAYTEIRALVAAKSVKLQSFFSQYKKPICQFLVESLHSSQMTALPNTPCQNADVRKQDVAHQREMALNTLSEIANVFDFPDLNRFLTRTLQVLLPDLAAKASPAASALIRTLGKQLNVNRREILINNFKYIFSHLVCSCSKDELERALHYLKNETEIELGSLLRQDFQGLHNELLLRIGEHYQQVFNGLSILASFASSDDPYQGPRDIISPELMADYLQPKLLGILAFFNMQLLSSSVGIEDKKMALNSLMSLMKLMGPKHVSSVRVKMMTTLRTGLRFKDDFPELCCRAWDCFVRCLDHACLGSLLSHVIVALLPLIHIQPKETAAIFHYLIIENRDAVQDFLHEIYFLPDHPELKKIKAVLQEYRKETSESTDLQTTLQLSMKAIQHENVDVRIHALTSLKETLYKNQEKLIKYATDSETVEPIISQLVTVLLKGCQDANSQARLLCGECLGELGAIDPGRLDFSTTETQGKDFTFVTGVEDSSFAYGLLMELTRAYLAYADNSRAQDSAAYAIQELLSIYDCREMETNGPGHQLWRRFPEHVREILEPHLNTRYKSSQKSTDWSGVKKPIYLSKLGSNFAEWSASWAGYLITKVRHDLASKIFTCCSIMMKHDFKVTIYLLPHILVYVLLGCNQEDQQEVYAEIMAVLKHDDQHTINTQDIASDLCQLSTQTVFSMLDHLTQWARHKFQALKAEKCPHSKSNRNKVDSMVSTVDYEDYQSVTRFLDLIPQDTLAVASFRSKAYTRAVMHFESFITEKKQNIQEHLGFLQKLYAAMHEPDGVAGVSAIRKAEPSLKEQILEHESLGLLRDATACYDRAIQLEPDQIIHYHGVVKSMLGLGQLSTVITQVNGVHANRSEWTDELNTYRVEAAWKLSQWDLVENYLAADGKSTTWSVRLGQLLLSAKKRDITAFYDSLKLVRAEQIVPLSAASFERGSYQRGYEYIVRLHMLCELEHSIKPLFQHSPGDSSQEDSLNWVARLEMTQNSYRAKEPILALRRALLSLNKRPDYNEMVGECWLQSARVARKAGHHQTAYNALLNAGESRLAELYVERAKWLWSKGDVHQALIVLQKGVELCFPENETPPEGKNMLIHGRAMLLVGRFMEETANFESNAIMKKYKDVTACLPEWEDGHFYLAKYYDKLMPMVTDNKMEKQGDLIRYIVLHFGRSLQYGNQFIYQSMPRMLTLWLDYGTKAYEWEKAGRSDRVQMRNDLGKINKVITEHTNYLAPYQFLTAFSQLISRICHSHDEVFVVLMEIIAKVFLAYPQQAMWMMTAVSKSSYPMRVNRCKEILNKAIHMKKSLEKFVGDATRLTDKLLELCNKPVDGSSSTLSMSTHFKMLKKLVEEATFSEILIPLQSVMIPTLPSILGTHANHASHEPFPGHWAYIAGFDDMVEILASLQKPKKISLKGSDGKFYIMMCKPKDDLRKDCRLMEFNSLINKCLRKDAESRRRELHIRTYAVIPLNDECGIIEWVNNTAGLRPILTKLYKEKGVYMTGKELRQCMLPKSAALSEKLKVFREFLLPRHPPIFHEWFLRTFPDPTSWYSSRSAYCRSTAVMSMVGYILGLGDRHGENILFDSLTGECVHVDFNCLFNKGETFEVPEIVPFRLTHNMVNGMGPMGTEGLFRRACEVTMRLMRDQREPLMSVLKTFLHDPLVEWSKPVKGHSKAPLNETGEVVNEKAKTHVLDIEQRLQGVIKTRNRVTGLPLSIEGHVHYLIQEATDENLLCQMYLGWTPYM
Chain of ATR (Q8WXE1 whole entry partner): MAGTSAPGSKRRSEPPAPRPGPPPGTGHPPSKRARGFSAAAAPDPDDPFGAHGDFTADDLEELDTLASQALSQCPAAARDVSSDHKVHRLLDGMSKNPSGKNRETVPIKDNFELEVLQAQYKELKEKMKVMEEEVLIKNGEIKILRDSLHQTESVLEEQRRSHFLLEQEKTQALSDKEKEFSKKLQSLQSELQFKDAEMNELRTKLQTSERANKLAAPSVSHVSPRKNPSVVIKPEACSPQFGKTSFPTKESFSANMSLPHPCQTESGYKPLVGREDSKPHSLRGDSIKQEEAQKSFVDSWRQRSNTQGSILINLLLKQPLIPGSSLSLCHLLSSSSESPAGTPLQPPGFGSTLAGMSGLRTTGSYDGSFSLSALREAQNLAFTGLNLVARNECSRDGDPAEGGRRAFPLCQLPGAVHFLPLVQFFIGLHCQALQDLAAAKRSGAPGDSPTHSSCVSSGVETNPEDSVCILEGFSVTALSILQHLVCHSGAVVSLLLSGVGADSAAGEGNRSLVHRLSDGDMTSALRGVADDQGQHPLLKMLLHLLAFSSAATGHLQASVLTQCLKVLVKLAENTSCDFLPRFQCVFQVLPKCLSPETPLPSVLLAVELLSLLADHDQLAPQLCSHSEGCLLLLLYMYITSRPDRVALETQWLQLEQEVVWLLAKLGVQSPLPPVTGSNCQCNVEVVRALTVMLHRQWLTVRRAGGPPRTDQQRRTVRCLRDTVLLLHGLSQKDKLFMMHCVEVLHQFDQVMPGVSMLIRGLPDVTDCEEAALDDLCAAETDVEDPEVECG

Regarding `Cn1cnc2c(F)c(Nc3ccc(Br)cc3Cl)c(C(=O)NOCCO)cc21` [AZD6244], in [1], the “oncogene-induced senescence by staining for senescence-associated β galactosidase” value is listed as “restores oncogene-induced senescence”. The Stem cell score entry in experiment [2] is on record as “can reverse the stem-cell phenotype”. In addition, the “CSC depletion by aldehyde dehydrogenase (ALDH) positivity” value in experiment [3] is “CSCs are depleted”. Besides, in experiment [4], the p21 protein expression result is reported as “recovers p21 protein expression”.

For `NC(=O)Nc1cc(-c2cccc(F)c2)sc1C(=O)N[C@H]1CCCNC1` [AZD7762], in [5], the “tumor growth, sensitization to immunotherapy” value is listed as “sensitizes cells to immunotherapy”.

Regarding `O=C(Nc1ccc2[nH]nc(-c3ccncc3)c2c1)[C@@H]1CCN(CC(=O)N2CCN(c3ccc(-c4ncccn4)cc3)CC2)C1` [SCH772984], in experiment [1], the “oncogene-induced senescence by staining for senescence-associated β galactosidase” value is on record as “restores oncogene-induced senescence”. Besides, the “CSC depletion by aldehyde dehydrogenase (ALDH) positivity” value in [3] is on record as “CSCs are depleted”. Besides, the p21 protein expression entry in experiment [4] was “recovers p21 protein expression”. In addition, the MDM2 phosphorylation result in experiment [6] is listed as “suppression of MDM2 phosphorylation”. Also, in experiment [7], the p53 levels entry is “negligible changes in p53 levels”.

Consider `CS(=O)(=O)c1ccc(-c2cnc(N)c(C(=O)Nc3ccccc3)n2)cc1` [VE821], for which, in experiment [8], the 50% inhibitory concentration (IC50) (usually the concentration that gives 50% inhibition) is 15 nM.

With “pembrolizumab: anti-PD-1 antibody described in WO2009/114335”, the improvement in survival in [9] is reported as 6.2 month.

(Values after patent US11851712B2, “Replication stress response biomarkers for immunotherapy response” (Board of Regents, The University of Texas System, priority 2018, dated 2023).)
